Earlier results, collected in US20260232685A1, “TRANSDERMAL PERMEATION ENHANCING COMPOSITION AND APPLICATION THEREOF IN TIMOLOL PREPARATION” (WUHAN CONFORM PHARMACEUTICAL CO., LTD., priority 2019, published 2026).

Conditions: absorbed by the gastrointestinal tract; J. Pharm. Pharmacol., 1978, 30, 53

For `CC(C)(C)NC[C@H](O)COc1nsnc1N1CCOCC1` [timolol], the “Hepatic first-pass effect and metabolism at other sites, share of the total dose” value is given as “about 34%”.
